Data reported in US8501781B2 (priority 2009, dated 2013).
Where two headings read alike, the source gives them in different places. Marks after values point to notes of the source that are not given here.

Test: logP by HPLC (EEC Directive 79/831 Annex V.A8)
Format: physicochemical
[1] = [b] LC-MS, acidic range, pH 2.7, 0.1% aqueous formic acid and acetonitrile
[2] = pH 2.7, given in the preparation examples, read-out: log P (pH 2.7)
[3] = [c] LC-MS, neutral range, pH 7.8, 0.001 molar aqueous ammonium bicarbonate and acetonitrile

In the case of `O=C(Oc1cccc2ccccc12)c1csc(C2CCN(C(=O)Cc3cccc(C(F)(F)F)c3)CC2)n1` [Example 1], the logP [1] is reported as 4.16^[b].
For `O=C(OC1CCCCC1)c1csc(C2CCN(C(=O)Cc3cccc(C(F)(F)F)c3)CC2)n1` [Example 2], the logP [1] was 4.21^[b].
In the case of `CCCCC(=O)N1CCC(c2nc(C(=O)Oc3cccc4ccccc34)cs2)CC1` [Example 3], the logP [1] is reported as 3.66^[b].
For `CCCCC(=O)N1CCC(c2nc(C(=O)OC3CCCCC3)cs2)CC1` [Example 4], the logP [1] was 3.64^[b].
In the case of `Cn1ncc(CC(=O)N2CCC(c3nc(C(=O)Oc4cccc5ccccc45)cs3)CC2)c1Cl` [Example 5], the logP [1] is reported as 3.00^[b].
For `Cn1ncc(CC(=O)N2CCC(c3nc(C(=O)OC4CCCCC4)cs3)CC2)c1Cl` [Example 6], the logP [1] was 2.93^[b].
In the case of `O=C(Oc1cccc2ccccc12)c1csc(C2CCN(C(=O)Cc3ccsc3)CC2)n1` [Example 7], the logP [1] is reported as 3.46^[b].
For `O=C(OC1CCCCC1)c1csc(C2CCN(C(=O)Cc3ccsc3)CC2)n1` [Example 8], the logP [1] was 3.42^[b].
With `O=C(OC1CCCCC1)c1csc(C2CCN(C(=O)Cc3cccc(Cl)c3)CC2)n1` [Example 9] the logP [1] was 4.04^[b].
In the case of `O=C(Oc1cccc2ccccc12)c1csc(C2CCN(C(=O)Cc3cccc(Cl)c3)CC2)n1` [Example 10], the logP [1] is reported as 4.01^[b].
In the case of `O=C(Oc1cccc2ccccc12)c1csc(C2CCN(C(=O)Cc3cc(C(F)(F)F)ccc3Cl)CC2)n1` [Example 11], the logP [1] is reported as 4.56^[b].
In the case of `O=C(OC1CCCCC1)c1csc(C2CCN(C(=O)Cc3cc(C(F)(F)F)ccc3Cl)CC2)n1` [Example 12], the logP [1] is reported as 4.64^[b].
In the case of `O=C(OC1CCCCC1)c1csc(C2CCN(C(=O)Cc3cc(C(F)(F)F)ccc3Br)CC2)n1` [Example 13], the logP [1] is reported as 4.75^[b].
For `O=C(OC1CCCCC1)c1csc(C2CCN(C(=O)Cc3cc(Cl)ccc3Cl)CC2)n1` [Example 14], the logP [1] was 4.49^[b].
Compound `O=C(OC1CCCCC1)c1csc(C2CCN(C(=O)Cc3cc(Br)ccc3Br)CC2)n1` [Example 15, Cyclohexyl 2-{1-[(2,5-dibromophenyl)acetyl]piperidin-4-yl}-1,3-thiazole-4-carboxylate] has a chromatographic logP [2] of 4.72.
In the case of `O=C(OC1CCCCC1)c1csc(C2CCN(C(=O)Cc3cc(C(F)(F)F)ccc3C(F)(F)F)CC2)n1` [Example 16], the logP [1] is reported as 4.81^[b].
With `Cc1ccc(Br)cc1CC(=O)N1CCC(c2nc(C(=O)OC3CCCCC3)cs2)CC1` [Example 17] the logP [1] was 4.47^[b].
With `O=C(OC1CCCCC1)c1csc(C2CCN(C(=O)Cc3cc(Cl)ccc3C(F)(F)F)CC2)n1` [Example 18] the logP [1] was 4.68^[b].
In the case of `Cc1ccc(I)cc1CC(=O)N1CCC(c2nc(C(=O)OC3CCCCC3)cs2)CC1` [Example 19], the logP [1] is reported as 4.66^[b].
In the case of `Cc1cc(CC(=O)N2CCC(c3nc(C(=O)OC4CCCCC4)cs3)CC2)c(C)s1` [Example 20], the logP [1] is reported as 4.24^[b].
In the case of `Cc1sc(-c2ccccc2)nc1CC(=O)N1CCC(c2nc(C(=O)OC3CCCCC3)cs2)CC1` [Example 21], the logP [1] is reported as 4.57^[b].
For `Cc1oc(-c2ccccc2)nc1CC(=O)N1CCC(c2nc(C(=O)OC3CCCCC3)cs2)CC1` [Example 22], the logP [1] was 4.15^[b].
With `Cc1sc(-c2ccccc2)nc1CC(=O)N1CCC(c2nc(C(=O)Oc3cccc4ccccc34)cs2)CC1` [Example 23] the logP [1] was 4.43^[b].
In the case of `Cc1oc(-c2ccccc2)nc1CC(=O)N1CCC(c2nc(C(=O)Oc3cccc4ccccc34)cs2)CC1` [Example 24], the logP [1] is reported as 4.04^[b].
For `Cc1cc(CC(=O)N2CCC(c3nc(C(=O)Oc4cccc5ccccc45)cs3)CC2)c(C)s1` [Example 25], the logP [1] was 4.12^[b].
For `Cc1nc(CC(=O)N2CCC(c3nc(C(=O)Oc4cccc5ccccc45)cs3)CC2)c(C)s1` [Example 26], the logP [1] was 3.10^[b].
In the case of `Cc1nc(CC(=O)N2CCC(c3nc(C(=O)OC4CCCCC4)cs3)CC2)c(C)s1` [Example 27], the logP [1] is reported as 3.02^[b].
For `Cc1nc(C)n(CC(=O)N2CCC(c3nc(C(=O)Oc4cccc5ccccc45)cs3)CC2)n1` [Example 28], the logP [1] was 2.17^[b].
With `Cc1nc(C)n(CC(=O)N2CCC(c3nc(C(=O)OC4CCCCC4)cs3)CC2)n1` [Example 29] the logP [1] was 2.08^[b].
For `O=C(OC1CCCCC1)c1csc(C2CCN(S(=O)(=O)Cc3cc(F)ccc3F)CC2)n1` [Example 30, Cyclohexyl 2-{1-[(2,5-difluorobenzyl)sulphonyl]piperidin-4-yl}-1,3-thiazole-4-carboxylate], the chromatographic logP [2] was 4.05.
For `Cc1cc(C(F)(F)F)nn1CC(=O)N1CCN(c2nc(C(=O)OC(C)c3cc(Cl)ccc3Cl)cs2)CC1` (stereo not drawn) [Example 31], the logP [1] was 4.28^[b].
For `Cc1cc(C(F)(F)F)nn1CC(=O)N1CCN(c2nc(C(=O)OC3CCCC(C(F)(F)F)C3)cs2)CC1` (stereo not drawn) [Example 32], the logP [3] was 3.81^[c].
In the case of `Cc1cc(C(F)(F)F)nn1CC(=O)N1CCN(c2nc(C(=O)Sc3cc(C(F)(F)F)ccc3Cl)cs2)CC1` [Example 33], the logP [1] is reported as 4.51^[b].
With `Cc1cc(C(F)(F)F)nn1CC(=O)N1CCN(c2nc(C(=O)SC3CCCCC3)cs2)CC1` [Example 34] the logP [3] was 4.43^[c].
With `COc1ccc(COC(=O)c2csc(N3CCN(C(=O)Cn4nc(C(F)(F)F)cc4C)CC3)n2)cc1` [Example 35] the logP [3] was 3.19^[c].
Work on `Cc1cc(C(F)(F)F)nn1CC(=O)N1CCN(c2nc(C(=O)Oc3cccc4cccnc34)cs2)CC1` [Example 36] yielded a logP [1] of 2.85 and a logP [3] of 2.83.
With `Cc1cc(C(F)(F)F)nn1CC(=O)N1CCN(c2nc(C(=O)Oc3ccc(Cl)cc3Cl)cs2)CC1` [Example 37] the logP [1] was 3.96 and the logP [3] was 3.87.
Work on `Cc1ccc(C(F)(F)F)cc1OC(=O)N1CCC(c2nc(C(=O)OC3CCCCC3)cs2)CC1` [Example 38, 2-Methyl-5-(trifluoromethyl)phenyl 4-{4-[(cyclohexyloxy)carbonyl]-1,3-thiazol-2-yl}piperidine-1-carboxylate] yielded a chromatographic logP [2] of 5.28.
Compound `Cc1cc(C(F)(F)F)nn1CC(=O)N1CCN(c2nc(C(=O)Oc3ccccc3Cl)cs2)CC1` [Example 39] has a logP [1] of 3.46 and a logP [3] of 3.41.
Compound `Cc1cc(C(F)(F)F)nn1CC(=O)N1CCN(c2nc(C(=O)Oc3ccc4ccccc4c3)cs2)CC1` [Example 40] has a logP [1] of 3.81 and a logP [3] of 3.76.
`Cc1cc(C(F)(F)F)nn1CC(=O)N1CCN(c2nc(C(=O)OC3Cc4ccccc4C3)cs2)CC1` [Example 41] gave a logP [1] of 3.64 and a logP [3] of 3.56.
In the case of `Cc1cc(C(F)(F)F)nn1CC(=O)N1CCN(c2nc(C(=O)OC3CCc4ccccc4C3)cs2)CC1` (stereo not drawn) [Example 42], the logP [1] is reported as 3.87 and the logP [3] is reported as 3.82.
Work on `Cc1cc(C(F)(F)F)nn1CC(=O)N1CCN(c2nc(C(=O)OC3CCCc4ccccc43)cs2)CC1` (stereo not drawn) [Example 43] yielded a logP [1] of 3.98 and a logP [3] of 3.91.
For `Cc1cc(C(F)(F)F)nn1CC(=O)N1CCN(c2nc(C(=O)OCc3ccc(Cl)cc3Cl)cs2)CC1` [Example 44], the logP [1] was 4.12^[c]; 4.12^[b] and the logP [3] was 4.12^[c]; 4.12^[b].
For `Cc1cc(C(F)(F)F)nn1CC(=O)N1CCN(c2nc(C(=O)Sc3ccc4ccccc4c3)cs2)CC1` [Example 45], the logP [1] was 4.33^[c]; 4.33^[b] and the logP [3] was 4.33^[c]; 4.33^[b].
Work on `Cc1cc(C(F)(F)F)nn1CC(=O)N1CCN(c2nc(C(=O)OC3CCCCC3)cs2)CC1` [Example 46, Cyclohexyl 2-(4-{[5-methyl-3-(trifluoromethyl)-1H-pyrazol-1-yl]acetyl}piperazin-1-yl)-1,3-thiazole-4-carboxylate] yielded a chromatographic logP ([c] LC-MS, neutral range, pH 7.8, 0.001 molar aqueous ammonium bicarbonate and acetonitrile, read-out: logP) of 3.68 and a chromatographic logP [2] of 3.69.
Work on `Cc1cc(C(F)(F)F)nn1CC(=O)N1CCN(c2nc(C(=O)Sc3ccc(Cl)cc3Cl)cs2)CC1` [Example 47] yielded a logP [1] of 4.49 and a logP [3] of 4.5.
For `Cc1cc(C(F)(F)F)nn1CC(=O)N1CCN(c2nc(C(=O)OCc3ccccc3Cl)cs2)CC1` [Example 48], the logP [1] was 3.64^[c]; 3.64^[b] and the logP [3] was 3.64^[c]; 3.64^[b].
Compound `Cc1cc(C(F)(F)F)nn1CC(=O)N1CCN(c2nc(C(=O)SCc3ccccc3Cl)cs2)CC1` [Example 49] has a logP [1] of 4.29 and a logP [3] of 4.32.
Compound `Cc1cc(C(F)(F)F)nn1CC(=O)N1CCN(c2nc(C(=O)SCc3ccc(Cl)cc3Cl)cs2)CC1` [Example 50] has a logP [1] of 4.79 and a logP [3] of 4.87.
Work on `Cc1cc(C(F)(F)F)nn1CC(=O)N1CCN(c2nc(C(=O)OCc3c(F)cccc3F)cs2)CC1` [Example 51] yielded a logP [1] of 3.28 and a logP [3] of 3.33.
With `O=C(OC1CCCCC1)c1csc(C2CCN(C(=O)Cc3nc(C(F)(F)F)ccc3Cl)CC2)n1` [Example 52] the logP [1] was 4.08^[b].
Compound `Cc1cc(C(F)(F)F)nn1CC(=O)N1CCN(c2nc(C(=O)OCc3ccc(F)cc3F)cs2)CC1` [Example 53] has a logP [1] of 3.42 and a logP [3] of 3.45.
In the case of `Cc1cc(C(F)(F)F)nn1CC(=O)N1CCN(c2nc(C(=O)OC(C)C3CCCCC3)cs2)CC1` (stereo not drawn) [Example 54], the logP [1] is reported as 4.4 and the logP [3] is reported as 4.46.
In the case of `O=C(OC1CCCCC1)c1csc(C2CCN(C(=O)C(=O)c3cccs3)CC2)n1` [Example 55], the logP [1] is reported as 3.46^[b].
In the case of `O=C(OC1CCCCC1)c1csc(C2CCN(C(=O)CC3CCCC(C(F)(F)F)C3)CC2)n1` (stereo not drawn) [Example 56], the logP [1] is reported as 4.58^[b].
For `O=C(OC1CCCCC1)c1csc(C2CCN(C(=O)CCCC(F)(F)C(F)(F)F)CC2)n1` [Example 57], the logP [1] was 4.22^[b].
With `CCCCCCC(=O)N1CCC(c2nc(C(=O)OC3CCCCC3)cs2)CC1` [Example 58] the logP [1] was 4.51^[b].
In the case of `Cc1ccc(C)c(NC(=O)N2CCC(c3nc(C(=O)OC4CCCCC4)cs3)CC2)c1` [Example 59, Cyclohexyl 2-{1-[(2,5-dimethylphenyl)carbamoyl]piperidin-4-yl}-1,3-thiazole-4-carboxylate], the chromatographic logP [2] is reported as 3.82.
With `O=C(OC1CCCCC1)c1csc(C2CCN(C(=O)C(=O)c3ccco3)CC2)n1` [Example 60] the logP [1] was 3.07^[b].
For `O=C(OC1CCCCC1)c1csc(C2CCN(C(=O)Nc3cc(C(F)(F)F)ccc3Cl)CC2)n1` [Example 61], the logP [1] was 4.76^[b].
With `Cc1ccc(Cl)c(NC(=O)N2CCC(c3nc(C(=O)OC4CCCCC4)cs3)CC2)c1` [Example 62] the logP [1] was 4.30^[b].
In the case of `Cc1ccc(C)c(NC(=S)N2CCC(c3nc(C(=O)OC4CCCCC4)cs3)CC2)c1` [Example 63], the logP [1] is reported as 4.17^[b].
For `Cc1ccc(F)c(NC(=O)N2CCC(c3nc(C(=O)OC4CCCCC4)cs3)CC2)c1` [Example 64], the logP [1] was 3.81^[b].
